Source: BindingDB's records for doi:10.1021/jm9905054 (Eisai, 2000)
Where a name gives a salt, the structure may show the parent alone.

Experiment: 50% inhibitory concentration against phosphodiesterase 5 (PDE5) from porcine platelets

| Compound | IC50 [nM] |
| --- | --- |
| COc1ccc(CNc2nnc(Cl)c3ccc(C#N)cc23)cc1Cl | 3 |
| COc1ccc(CNc2nnc(N3CC[S+]([O-])CC3)c3ccc(C#N)cc23)cc1Cl | 0.7 |
| COc1ccc(CNc2nnc(N3CCC(O)CC3)c3ccc(C(F)(F)F)cc23)cc1Cl [1-[4-(3-Chloro-4-methoxy-benzylamino)-6-trifluoromethyl-phthalazin-1-yl]-piperidin-4-ol; hydrochloride] | 0.73 |
| COc1ccc(CNc2nnc(N3CCC(O)CC3)c3cc(Cl)c(Cl)cc23)cc1Cl [1-[6,7-Dichloro-4-(3-chloro-4-methoxy-benzylamino)-phthalazin-1-yl]-piperidin-4-ol; hydrochloride] | 0.86 |
| COc1ccc(CNc2nnc(N3CC=CCC3)c3ccc(C#N)cc23)cc1Cl [4-(3-Chloro-4-methoxy-benzylamino)-1-(3,6-dihydro-2H-pyridin-1-yl)-phthalazine-6-carbonitrile; hydrochloride] | 1.9 |
| COc1ccc(CNc2nnc(N[C@H]3CC[C@H](O)CC3)c3ccc(C#N)cc23)cc1Cl [4-(3-Chloro-4-methoxy-benzylamino)-1-(4-hydroxy-cyclohexylamino)-phthalazine-6-carbonitrile; hydrochloride] | 12 |
| COc1ccc(CNc2nnc(N3CCC(O)CC3)c3ccc(C(=O)O)cc23)cc1Cl [4-(3-Chloro-4-methoxy-benzylamino)-1-(4-hydroxy-piperidin-1-yl)-phthalazine-6-carboxylic acid; hydrochloride] | 600 |
| COc1ccc(CNc2nnc(N3CCC(OC)CC3)c3ccc(C#N)cc23)cc1Cl [4-(3-Chloro-4-methoxy-benzylamino)-1-(4-methoxy-piperidin-1-yl)-phthalazine-6-carbonitrile; hydrochloride] | 1.1 |
| COc1ccc(CNc2nnc(N3CCN(c4ncccn4)CC3)c3ccc(C#N)cc23)cc1Cl [4-(3-Chloro-4-methoxy-benzylamino)-1-(4-pyrimidin-2-yl-piperazin-1-yl)-phthalazine-6-carbonitrile; hydrochloride] | 19 |
| COc1ccc(CNc2nnc(NCc3cccnc3)c3ccc(C#N)cc23)cc1Cl [4-(3-Chloro-4-methoxy-benzylamino)-1-[(pyridin-3-ylmethyl)-amino]-phthalazine-6-carbonitrile; hydrochloride] | 6.8 |
| COc1ccc(CNc2nnc(NCc3ccncc3)c3ccc(C#N)cc23)cc1Cl [4-(3-Chloro-4-methoxy-benzylamino)-1-[(pyridin-4-ylmethyl)-amino]-phthalazine-6-carbonitrile; hydrochloride] | 6.7 |
| COc1ccc(CNc2nnc(-n3ccnc3)c3ccc(C#N)cc23)cc1Cl [4-(3-Chloro-4-methoxy-benzylamino)-1-imidazol-1-yl-phthalazine-6-carbonitrile; hydrochloride] | 1.5 |
| COc1ccc(CNc2nnc(N3CCSCC3)c3ccc(C#N)cc23)cc1Cl [4-(3-Chloro-4-methoxy-benzylamino)-1-thiomorpholin-4-yl-phthalazine-6-carbonitrile; hydrochloride] | 0.32 |
| COc1ccc(CNc2nnc(N3CCC(NS(C)(=O)=O)CC3)c3ccc(C#N)cc23)cc1Cl [N-{1-[4-(3-Chloro-4-methoxy-benzylamino)-6-cyano-phthalazin-1-yl]-piperidin-4-yl}-methanesulfonamide; hydrochloride] | 14 |

Continued by falling IC50, values first:

| IC50 [nM] | Compound |
| --- | --- |
| 11 | COc1ccc(CNc2nnc(N3CCN(c4ccccn4)CC3)c3ccc(C#N)cc23)cc1Cl [4-(3-Chloro-4-methoxy-benzylamino)-1-(4-pyridin-2-yl-piperazin-1-yl)-phthalazine-6-carbonitrile; hydrochloride] |
| 4.4 | COc1ccc(CNc2nnc(N3CCC(O)CC3)c3ccc(Cl)cc23)cc1Cl [1-[6-Chloro-4-(3-chloro-4-methoxy-benzylamino)-phthalazin-1-yl]-piperidin-4-ol; hydrochloride] |
| 3.1 | COc1ccc(CNc2nnc(N3CCC(C(=O)O)CC3)c3ccc(C#N)cc23)cc1Cl [1-[4-(3-Chloro-4-methoxy-benzylamino)-6-cyano-phthalazin-1-yl]-piperidine-4-carboxylic acid; hydrochloride] |
| 2.7 | COc1ccc(CNc2nnc(NCc3ccccn3)c3ccc(C#N)cc23)cc1Cl [4-(3-Chloro-4-methoxy-benzylamino)-1-[(pyridin-2-ylmethyl)-amino]-phthalazine-6-carbonitrile; hydrochloride] |
| 2.6 | COc1ccc(CNc2nnc(NCCCO)c3ccc(C#N)cc23)cc1Cl [4-(3-Chloro-4-methoxy-benzylamino)-1-(3-hydroxy-propylamino)-phthalazine-6-carbonitrile; hydrochloride] |
| 2 | COc1ccc(CNc2nnc(N3CCC(O)CC3)c3ccc(C(N)=O)cc23)cc1Cl [4-(3-Chloro-4-methoxy-benzylamino)-1-(4-hydroxy-piperidin-1-yl)-phthalazine-6-carboxylic acid amide; hydrochloride] |
| 1.7 | COc1ccc(CNc2nnc(N3CCN(CCO)CC3)c3ccc(C#N)cc23)cc1Cl [4-(3-Chloro-4-methoxy-benzylamino)-1-[4-(2-hydroxy-ethyl)-piperazin-1-yl]-phthalazine-6-carbonitrile; hydrochloride] |
| 1.2 | COc1ccc(CNc2nnc(N3CCCC(O)C3)c3ccc(C#N)cc23)cc1Cl (configuration not stated) [4-(3-Chloro-4-methoxy-benzylamino)-1-(3-hydroxy-piperidin-1-yl)-phthalazine-6-carbonitrile; hydrochloride] |
| 1.2 | COc1ccc(CNc2nnc(N3CCNCC3)c3ccc(C#N)cc23)cc1Cl [4-(3-Chloro-4-methoxy-benzylamino)-1-piperazin-1-yl-phthalazine-6-carbonitrile; hydrochloride] |
| 0.95 | COc1ccc(CNc2nnc(N3CCN(C)CC3)c3ccc(C#N)cc23)cc1Cl [4-(3-Chloro-4-methoxy-benzylamino)-1-(4-methyl-piperazin-1-yl)-phthalazine-6-carbonitrile; hydrochloride] |
| 0.93 | COc1ccc(CNc2nnc(N3CCC(CO)CC3)c3ccc(C#N)cc23)cc1Cl [4-(3-Chloro-4-methoxy-benzylamino)-1-(4-hydroxymethyl-piperidin-1-yl)-phthalazine-6-carbonitrile; hydrochloride] |
| 0.79 | COc1ccc(CNc2nnc(N3CCS(=O)(=O)CC3)c3ccc(C#N)cc23)cc1Cl [4-(3-Chloro-4-methoxy-benzylamino)-1-(1,1-dioxo-1lambda*6*-thiomorpholin-4-yl)-phthalazine-6-carbonitrile; hydrochloride] |
| 0.7 | COc1ccc(CNc2nnc(N3CCC(C)(O)CC3)c3ccc(C#N)cc23)cc1Cl [4-(3-Chloro-4-methoxy-benzylamino)-1-(4-hydroxy-4-methyl-piperidin-1-yl)-phthalazine-6-carbonitrile; hydrochloride] |
| 0.7 | COc1ccc(CNc2nnc(N3CCC(CCO)CC3)c3ccc(C#N)cc23)cc1Cl [4-(3-Chloro-4-methoxy-benzylamino)-1-[4-(2-hydroxy-ethyl)-piperidin-1-yl]-phthalazine-6-carbonitrile; hydrochloride] |
| 0.55 | COc1ccc(CNc2nnc(N3CCCCC3)c3ccc(C#N)cc23)cc1Cl [4-(3-Chloro-4-methoxy-benzylamino)-1-piperidin-1-yl-phthalazine-6-carbonitrile; hydrochloride] |
| 0.53 | COc1ccc(CNc2nnc(N3CCC(=O)CC3)c3ccc(C#N)cc23)cc1Cl [4-(3-Chloro-4-methoxy-benzylamino)-1-(4-oxo-piperidin-1-yl)-phthalazine-6-carbonitrile; hydrochloride] |
| 0.5 | COc1ccc(CNc2nnc(N3CCC(C(N)=O)CC3)c3ccc(C#N)cc23)cc1Cl [1-[4-(3-Chloro-4-methoxy-benzylamino)-6-cyano-phthalazin-1-yl]-piperidine-4-carboxylic acid amide; hydrochloride] |
| 0.3 | COc1ccc(CNc2nnc(N3CCC(O)CC3)c3ccc([N+](=O)[O-])cc23)cc1Cl [1-[4-(3-Chloro-4-methoxy-benzylamino)-6-nitro-phthalazin-1-yl]-piperidin-4-ol; hydrochloride] |
